{"source": "patent US6028107A", "about": "“Orthomolecular medical use of L-citrulline for vasoprotection, relaxative smooth muscle tone and cell protection” (priority 1997, dated 2000)", "key": {"arterial injury": {"system": "arterial injury", "settings": "2.25% in the drinking water, long-term; cited from earlier work"}, "[1]": {"settings": "oral 3-gram single doses, healthy humans; cited from earlier work"}, "[2]": {"settings": "rats, parenteral injection; cited from earlier work"}, "[3]": {"settings": "cited from earlier work"}, "[4]": {"system": "purified endothelial c-NOS", "settings": "purified enzyme in vitro; read-out: apparent Michaelis constant (Km); cited from earlier work"}, "endothelial c-NOS [5]": {"system": "endothelial c-NOS", "settings": "L-glutamine 600 μM; above 10 μM to 1,000 μM and more L-arginine; cited from earlier work"}, "[6]": {"system": "endothelium-dependent vasodilation", "settings": "infusion, hypercholesterolemia; cited from earlier work"}, "[7]": {"system": "glomerular hyperfiltration", "settings": "long-term oral, marked amounts; cited from earlier work"}, "uterine muscle strips": {"system": "uterine muscle strips", "settings": "added to extracellular fluid; cited from earlier work"}, "spermatocytes": {"system": "spermatocytes", "settings": "oral 4 to 20 grams daily; cited from earlier work"}, "[8]": {"system": "oligemic vasoconstriction", "settings": "rats; cited from earlier work"}, "creatine biosynthesis": {"system": "creatine biosynthesis", "settings": "dietary, man; cited from earlier work"}, "endothelial c-NOS [9]": {"system": "endothelial c-NOS", "settings": "plasma L-arginine above normal fasting about 75 to 90 μM; cited from earlier work"}, "[10]": {"experiment": "Plasma ultrafiltrate L-arginine level after oral L-citrulline (Example 1)", "type": "in vivo, human", "method": "A novel […] method for the quantitative assay of free L-arginine in blood plasma was developed. The method measures the color product from monosubstituted guanidines without and with L-arginase incubation to destroy the arginine and the potential guanido color product that would be derived from L-arginine. The photometric decrease in guanido color product measures specifically the concentration of L-arginine. The L-arginine methodology was applied to ultrafiltrates of blood plasma after ultrafiltrations of separated plasma samples were done at 4° Celsius.\nBlood plasma levels after 9 to 10 hours of overnight fasting averaged 83.0±1.1 μM (mean±SD of 3 determinations). Two hours after ingestion of 3.0 grams of L-citrulline in capsular form, plasma L-arginine level rose by […] to 132.7 μM. Overnight fasting plasma levels of L-arginine measured 125.2, 98.1, 90.8, 114.2, and 120.0 μM after ingestion of L-citrulline for 6 days at 6.0 grams, for 13 days at 2.4 grams, for 6 days at 3.4 grams, for 7 days at 6.8 grams, and for 2 days at 8.5 grams, respectively, in 2 divided doses (morning and nightly)."}, "[11]": {"experiment": "Total bleeding time, forearm template method (Example 2)", "type": "in vivo, human", "settings": "after 4 weeks of 5.4 grams daily in 2 divided doses", "method": "The same subject that was studied in Example 1 was studied by total bleeding time determinations before and during ingestion of daily doses of L-citrulline, in two divided subdoses. Forearm bleeding times were done by 3 to 5 mm cuts about 1 mm deep made perpendicular to the fold of the elbow during template methodology and a sphygmomanometer cuff maintained near 40 mm Hg pressure. Control bleeding times were 51/2 minutes. Bleeding time rose to 131/2 minutes after 2 days of ingestion of 8.5 grams daily. Bleeding time was prolonged at 13 minutes after 4 weeks of ingestion of 5.4 grams of L-citrulline daily in 2 divided doses."}, "migraine pains": {"system": "migraine pains", "experiment": "Migraine attack, oral L-citrulline capsules (Example 4)", "type": "in vivo, human", "settings": "2.7 grams, again about 1 hour later, third dose 6 hours later", "method": "[…] Their body weight was 59 kg. The subject gave a history of migraine pains with and without aura for about 15 years. Currently, the migraine pains were recurring about once to a few times weekly. Their parent had experienced migraine headaches for many years.\nShortly after the onset of a severe headache attack, the subject ingested 2.7 grams of L-citrulline, followed by another 2.7 grams about 1 hour later. They ingested a third dose of the same amount 6 hours later."}, "[12]": {"experiment": "Tolerability during the study of Example 1", "type": "in vivo, human", "excerpt": "They remained on their usual regular diet and continued working during the study."}, "[13]": {"settings": "plasma-borne; cited from earlier work"}, "[14]": {"settings": "intestinal-derived, portal venous blood; cited from earlier work"}, "human platelets": {"system": "human platelets", "settings": "300 μM extracellular; L-arginine 30 μM; cited from earlier work"}, "migraine aura": {"system": "migraine aura", "settings": "inhalation of small amounts; cited from earlier work"}, "platelet activity": {"system": "platelet activity", "settings": "cited from earlier work"}, "hippocampal brain tissue": {"system": "hippocampal brain tissue", "settings": "extracellular creatine increased by 3 mM; cited from earlier work"}, "muscle": {"system": "muscle", "settings": "oral supplementation daily; cited from earlier work"}}, "note": "“Also recorded” adds a separate entry of the source.", "data": [{"smiles": "Cl.N=C(N)NCCC[C@H](N)C(=O)O", "note": "[L-arginine hydrochloride]", "values": [{"measurement": "increase of plasma arginine levels", "setting": "arterial injury", "result": "about 2.6 times"}, {"measurement": "neoendothelium-dependent arterial muscle relaxation", "setting": "arterial injury", "result": "enhanced neoendothelium-dependent arterial muscle relaxation"}, {"measurement": "thickening after arterial injury", "setting": "arterial injury", "result": "reduced thickening"}]}, {"smiles": "N=C(N)NCCC[C@H](N)C(=O)O", "note": "[L-arginine]", "values": [{"measurement": "plasma citrulline levels", "setting": "[1]", "result": "without a change in plasma citrulline levels"}, {"measurement": "plasma half-life", "setting": "[2]", "result": "about 1 hour"}, {"measurement": "time of peak plasma arginine level", "setting": "[3]; 24.8 grams of L-arginine (30 grams of arginine hydrochloride)", "result": "about 1 hour"}, {"measurement": "time to return to near fasting values", "setting": "[3]; 24.8 grams of L-arginine", "result": 3, "unit": "h"}, {"measurement": "peak plasma arginine relative to fasting values", "setting": "[3]; 24.8 grams of L-arginine, fasting 90±6 μM", "result": "about 3.6 times"}, {"measurement": "Km", "setting": "[4]", "result": "~6", "unit": "µM"}, {"measurement": "endothelial production of nitric oxide by c-NOS versus extracellular L-arginine", "setting": "endothelial c-NOS [5]", "result": "directly dependent upon the extracellular concentrations of L-arginine above 10 μM to levels of 1,000 μM and more without apparent saturation of the enzyme"}, {"measurement": "impaired endothelium-dependent vasodilation", "setting": "[6]", "result": "impaired endothelium-dependent vasodilation is corrected"}, {"measurement": "glomerular hyperfiltration and abnormal filtration fraction hemodynamics", "setting": "[7]", "result": "prevents the glomerular hyperfiltration and abnormal filtration fraction hemodynamics"}, {"measurement": "proteinuria", "setting": "[7]", "result": "ameliorates the proteinuria"}, {"measurement": "muscle quiescence", "setting": "uterine muscle strips", "result": "muscle quiescence"}, {"measurement": "muscle relaxation", "setting": "uterine muscle strips", "result": "dose-dependent muscle relaxation"}, {"measurement": "nitric oxide generation", "setting": "uterine muscle strips", "result": "nitric oxide generation"}, {"measurement": "total sperm counts and motility rates", "setting": "spermatocytes", "result": "may improve total sperm counts and motility rates"}, {"measurement": "oligemic vasoconstriction following cortical spreading depression", "setting": "[8]", "result": "reduces the oligemic vasoconstriction"}, {"measurement": "creatine biosynthesis and pools of creatine and phosphocreatine in muscle and nerve", "setting": "creatine biosynthesis", "result": "leads to more creatine biosynthesis and slowly expansible pools of creatine and phosphocreatine"}, {"measurement": "endothelial nitric oxide production", "setting": "endothelial c-NOS [9]", "result": "augments endothelial nitric oxide production"}]}, {"smiles": "NC(=O)NCCC[C@H](N)C(=O)O", "note": "[L-citrulline]", "values": [{"measurement": "rise of plasma L-arginine level", "setting": "[10]; 2 hours after single oral 3.0 grams, capsular form", "result": 62.4, "unit": "%"}, {"measurement": "elevation of blood plasma L-arginine versus ingestion of equivalent amounts of L-arginine", "setting": "[10]; comparison with L-arginine as single amino acid or in protein meals", "result": "more efficient and longer lasting"}, {"measurement": "blood plasma levels of L-arginine after overnight fasting 9 to 10 hours", "setting": "[10]; daily dosage in two divided subdoses", "result": "greater blood plasma levels of L-arginine even after overnight fasting"}, {"measurement": "blood plasma concentrations of free L-arginine", "setting": "[10]; single oral doses of 3.0 grams or more, capsule form", "result": "promptly raised to much higher levels"}, {"measurement": "Bleeding time", "setting": "[11]", "result": 13, "unit": "min"}, {"measurement": "migraine pain", "setting": "migraine pains", "result": "markedly lessened in intensity and in duration"}, {"measurement": "nausea during the migraine attack", "setting": "migraine pains", "result": "Much less nausea"}, {"measurement": "adverse symptoms or untoward signs", "setting": "[12]", "result": "No adverse symptoms or untoward signs were experienced"}, {"measurement": "blood-brain barrier passage", "setting": "[13]", "result": "readily passes the blood-brain barrier"}, {"measurement": "liver uptake", "setting": "[14]", "result": "Without appreciable liver uptake"}]}, {"smiles": "NC(=O)CC[C@H](N)C(=O)O", "note": "[L-glutamine]", "values": [{"measurement": "effect on L-arginine uptake", "setting": "human platelets", "result": "inhibitory"}]}, {"smiles": "NCCCC[C@H](N)C(=O)O", "note": "[L-lysine]", "values": [{"measurement": "effect on L-arginine uptake", "setting": "human platelets", "result": "inhibitory"}]}, {"smiles": "NCCC[C@H](N)C(=O)O", "note": "[L-ornithine]", "values": [{"measurement": "effect on L-arginine uptake", "setting": "human platelets", "result": "inhibitory"}]}, {"smiles": "CCCCCON=O", "note": "[amyl nitrite]", "values": [{"measurement": "migraine aura", "setting": "migraine aura", "result": "temporarily reversed migraine aura in some cases"}]}, {"smiles": "CC(=O)Oc1ccccc1C(=O)O", "note": "[aspirin, acetylsalicylic acid]", "values": [{"measurement": "total bleeding time", "setting": "platelet activity; low-dose / small therapeutic doses orally", "result": "prolongs the total bleeding time; also recorded: prolonged"}, {"measurement": "platelet activity", "setting": "platelet activity; low-dose intake", "result": "inhibits platelet activity"}]}, {"smiles": "CN(CC(=O)O)C(=N)N", "note": "[creatine]", "values": [{"measurement": "neurocyte viabilities after anoxic periods", "setting": "hippocampal brain tissue", "result": "greater neurocyte viabilities"}, {"measurement": "neuronal free creatine and phosphocreatine levels", "setting": "hippocampal brain tissue", "result": "large increases in neuronal free creatine and phosphocreatine levels"}, {"measurement": "muscle fatigue with physical exercise", "setting": "muscle", "result": "lessened muscle fatigue"}, {"measurement": "muscle stores of free creatine and phosphocreatine", "setting": "muscle", "result": "greater muscle stores of free creatine and phosphocreatine"}]}]}
